Earlier results, collected in patent US20200367542A1, “AROMA COMPOSITION” (SYMRISE AG, priority 2017, published 2020).

Legend:
[1] = J. Chem. Senses 1979, 4(1), 35-47
[2] = purity>90%, in soft drinks

| Structure (SMILES) | Taste described in the publication [1] | Concentration to achieve a sweetness corresponding to a concentration of sucrose of 10% by weight [2] |
| --- | --- | --- |
| COc1ccc(CCC(=O)c2c(O)cccc2O)cc1O [dihydrochalcone (3)] | tasteless |  |
| C=C1C[C@@]23CC[C@H]4[C@@](C)(CCC[C@@]4(C)C(=O)O[C@@H]4O[C@H](CO)[C@@H](O)[C@H](O)[C@H]4O)[C@@H]2CC[C@]1(O[C@@H]1O[C@H](CO)[C@@H](O)[C@H](O[C@@H]2O[C@H](CO)[C@@H](O)[C@H](O)[C@H]2O)[C@H]1O[C@@H]1O[C@H](CO)[C@@H](O)[C@H](O)[C@H]1O)C3 [rebaudioside A] |  | 400-600 ppm |
| COc1ccc(CCC(=O)c2ccccc2O)cc1O [dihydrochalcone (2)] | intensively sweet tasting |  |
